system: P. falciparum clone TM90C2A; assay: not given; settings: by EC50 or, for ART, RSA, well-characterized susceptibilities; cited from earlier work

SMILES	Clone susceptibility to antimalarial (R/S)
O=C1C(O)=C([C@H]2CC[C@H](c3ccc(Cl)cc3)CC2)C(=O)c2ccccc21 [atovaquone]	S
CCN(CC)CCCC(C)Nc1ccnc2cc(Cl)ccc12 (stereo not drawn) [chloroquine]	R
CCc1nc(N)nc(N)c1-c1ccc(Cl)cc1 [pyrimethamine]	R

system: P. falciparum clone 7G8; assay: not given; settings: by EC50 or, for ART, RSA, well-characterized susceptibilities; cited from earlier work

SMILES	Clone susceptibility to antimalarial (R/S)
C=C[C@H]1C[N@@]2CC[C@H]1C[C@H]2[C@H](O)c1ccnc2ccc(OC)cc12 [QN, quinine]	R
O=C1C(O)=C([C@H]2CC[C@H](c3ccc(Cl)cc3)CC2)C(=O)c2ccccc21 [atovaquone]	S
CCN(CC)CCCC(C)Nc1ccnc2cc(Cl)ccc12 (stereo not drawn) [chloroquine]	R
CCc1nc(N)nc(N)c1-c1ccc(Cl)cc1 [pyrimethamine]	R

system: P. falciparum clone IPC 5202; assay: not given; parameters: method as in BEI, Didier Menard; settings: by EC50 or, for ART, RSA, well-characterized susceptibilities, ref BEI, Didier Menard; cited from earlier work

SMILES	Clone susceptibility to antimalarial (R/S)
C=C[C@H]1C[N@@]2CC[C@H]1C[C@H]2[C@H](O)c1ccnc2ccc(OC)cc12 [QN, quinine]	R
COc1ncnc(NS(=O)(=O)c2ccc(N)cc2)c1OC [SDX, sulfadoxine]	R
O=C1C(O)=C([C@H]2CC[C@H](c3ccc(Cl)cc3)CC2)C(=O)c2ccccc21 [atovaquone]	S
CCN(CC)CCCC(C)Nc1ccnc2cc(Cl)ccc12 (stereo not drawn) [chloroquine]	R
CCc1nc(N)nc(N)c1-c1ccc(Cl)cc1 [pyrimethamine]	R

system: P. falciparum gametocytes; assay: not given; parameters: method as in PMID 24206914; settings: read-out: gametocytocidal potency of comparator antimalarials; cited from earlier work

SMILES	EC50 [µM]
COc1cc(NC(C)CCCN)c2ncccc2c1 (stereo not drawn) [primaquine]	> 40
COc1ccc2nc3cc(Cl)ccc3c(Nc3cc(CN4CCCC4)c(O)c(CN4CCCC4)c3)c2n1 [pyronaridine]	4.26

system: P. falciparum clone V1/S; assay: not given; settings: by EC50 or, for ART, RSA, well-characterized susceptibilities; cited from earlier work

SMILES	Clone susceptibility to antimalarial (R/S)
C=C[C@H]1C[N@@]2CC[C@H]1C[C@H]2[C@H](O)c1ccnc2ccc(OC)cc12 [QN, quinine]	R
O=C1C(O)=C([C@H]2CC[C@H](c3ccc(Cl)cc3)CC2)C(=O)c2ccccc21 [atovaquone]	S
CCN(CC)CCCC(C)Nc1ccnc2cc(Cl)ccc12 (stereo not drawn) [chloroquine]	R
CCc1nc(N)nc(N)c1-c1ccc(Cl)cc1 [pyrimethamine]	R

system: P. falciparum clone 3D7; assay: not given; settings: by EC50 or, for ART, RSA, well-characterized susceptibilities; cited from earlier work

SMILES	Clone susceptibility to antimalarial (R/S)
C=C[C@H]1C[N@@]2CC[C@H]1C[C@H]2[C@H](O)c1ccnc2ccc(OC)cc12 [QN, quinine]	S
COc1ncnc(NS(=O)(=O)c2ccc(N)cc2)c1OC [SDX, sulfadoxine]	R
O=C1C(O)=C([C@H]2CC[C@H](c3ccc(Cl)cc3)CC2)C(=O)c2ccccc21 [atovaquone]	S
CCN(CC)CCCC(C)Nc1ccnc2cc(Cl)ccc12 (stereo not drawn) [chloroquine]	S
CCc1nc(N)nc(N)c1-c1ccc(Cl)cc1 [pyrimethamine]	S

system: P. falciparum clone HB3; assay: not given; settings: by EC50 or, for ART, RSA, well-characterized susceptibilities; cited from earlier work

SMILES	Clone susceptibility to antimalarial (R/S)
C=C[C@H]1C[N@@]2CC[C@H]1C[C@H]2[C@H](O)c1ccnc2ccc(OC)cc12 [QN, quinine]	S
COc1ncnc(NS(=O)(=O)c2ccc(N)cc2)c1OC [SDX, sulfadoxine]	S
O=C1C(O)=C([C@H]2CC[C@H](c3ccc(Cl)cc3)CC2)C(=O)c2ccccc21 [atovaquone]	S
CCN(CC)CCCC(C)Nc1ccnc2cc(Cl)ccc12 (stereo not drawn) [chloroquine]	S
CCc1nc(N)nc(N)c1-c1ccc(Cl)cc1 [pyrimethamine]	R

system: P. falciparum clone Dd2; assay: not given; settings: by EC50 or, for ART, RSA, well-characterized susceptibilities; cited from earlier work

SMILES	Clone susceptibility to antimalarial (R/S)
C=C[C@H]1C[N@@]2CC[C@H]1C[C@H]2[C@H](O)c1ccnc2ccc(OC)cc12 [QN, quinine]	R
COc1ncnc(NS(=O)(=O)c2ccc(N)cc2)c1OC [SDX, sulfadoxine]	R
O=C1C(O)=C([C@H]2CC[C@H](c3ccc(Cl)cc3)CC2)C(=O)c2ccccc21 [atovaquone]	S
CCN(CC)CCCC(C)Nc1ccnc2cc(Cl)ccc12 (stereo not drawn) [chloroquine]	R
CCc1nc(N)nc(N)c1-c1ccc(Cl)cc1 [pyrimethamine]	R

system: P. falciparum clone GMC1; assay: not given; settings: by EC50 or, for ART, RSA, well-characterized susceptibilities; cited from earlier work

SMILES	Clone susceptibility to antimalarial (R/S)
COc1ncnc(NS(=O)(=O)c2ccc(N)cc2)c1OC [SDX, sulfadoxine]	R
O=C1C(O)=C([C@H]2CC[C@H](c3ccc(Cl)cc3)CC2)C(=O)c2ccccc21 [atovaquone]	S
CCN(CC)CCCC(C)Nc1ccnc2cc(Cl)ccc12 (stereo not drawn) [chloroquine]	R
CCc1nc(N)nc(N)c1-c1ccc(Cl)cc1 [pyrimethamine]	R

system: P. falciparum clone NF54; assay: not given; settings: by EC50 or, for ART, RSA, well-characterized susceptibilities; cited from earlier work

SMILES	Clone susceptibility to antimalarial (R/S)
C=C[C@H]1C[N@@]2CC[C@H]1C[C@H]2[C@H](O)c1ccnc2ccc(OC)cc12 [QN, quinine]	S
COc1ncnc(NS(=O)(=O)c2ccc(N)cc2)c1OC [SDX, sulfadoxine]	R
O=C1C(O)=C([C@H]2CC[C@H](c3ccc(Cl)cc3)CC2)C(=O)c2ccccc21 [atovaquone]	S
CCN(CC)CCCC(C)Nc1ccnc2cc(Cl)ccc12 (stereo not drawn) [chloroquine]	S
CCc1nc(N)nc(N)c1-c1ccc(Cl)cc1 [pyrimethamine]	S

system: P. falciparum clone D10 w/ yDHODH; assay: not given; settings: by EC50 or, for ART, RSA, well-characterized susceptibilities; cited from earlier work

SMILES	Clone susceptibility to antimalarial (R/S)
O=C1C(O)=C([C@H]2CC[C@H](c3ccc(Cl)cc3)CC2)C(=O)c2ccccc21 [atovaquone]	R
CCN(CC)CCCC(C)Nc1ccnc2cc(Cl)ccc12 (stereo not drawn) [chloroquine]	S

system: P. falciparum 3D7 asexual blood stages; assay: Standard 72-hour inhibitor-response (parasite proliferation) assay; type: cell-based; settings: Plasmodium falciparum, 3D7, 72 h, read-out: 3D7 EC50

SMILES	EC50 [µM]
CCN(CC)CCCC(C)Nc1ccnc2cc(Cl)ccc12 (stereo not drawn) [chloroquine]	0.006

same assay, conditions: Plasmodium falciparum; 3D7, 72-hour assay; read-out: 3D7 EC50

SMILES	EC50 [µM]
O=C1C(O)=C([C@H]2CC[C@H](c3ccc(Cl)cc3)CC2)C(=O)c2ccccc21 [atovaquone]	0.001
CCc1nc(N)nc(N)c1-c1ccc(Cl)cc1 [pyrimethamine]	0.019

system: P. falciparum clone D6; assay: not given; settings: by EC50 or, for ART, RSA, well-characterized susceptibilities; cited from earlier work

SMILES	Clone susceptibility to antimalarial (R/S)
C=C[C@H]1C[N@@]2CC[C@H]1C[C@H]2[C@H](O)c1ccnc2ccc(OC)cc12 [QN, quinine]	S
COc1ncnc(NS(=O)(=O)c2ccc(N)cc2)c1OC [SDX, sulfadoxine]	S
O=C1C(O)=C([C@H]2CC[C@H](c3ccc(Cl)cc3)CC2)C(=O)c2ccccc21 [atovaquone]	S
CCN(CC)CCCC(C)Nc1ccnc2cc(Cl)ccc12 (stereo not drawn) [chloroquine]	S
CCc1nc(N)nc(N)c1-c1ccc(Cl)cc1 [pyrimethamine]	S

system: P. falciparum clone IPC 3445; assay: not given; parameters: method as in BEI, Didier Menard; settings: by EC50 or, for ART, RSA, well-characterized susceptibilities, ref BEI, Didier Menard; cited from earlier work

SMILES	Clone susceptibility to antimalarial (R/S)
C=C[C@H]1C[N@@]2CC[C@H]1C[C@H]2[C@H](O)c1ccnc2ccc(OC)cc12 [QN, quinine]	R
COc1ncnc(NS(=O)(=O)c2ccc(N)cc2)c1OC [SDX, sulfadoxine]	R
O=C1C(O)=C([C@H]2CC[C@H](c3ccc(Cl)cc3)CC2)C(=O)c2ccccc21 [atovaquone]	S
CCN(CC)CCCC(C)Nc1ccnc2cc(Cl)ccc12 (stereo not drawn) [chloroquine]	R
CCc1nc(N)nc(N)c1-c1ccc(Cl)cc1 [pyrimethamine]	R

Reference: article PMC10848769, “Tartrolon E, a secondary metabolite of a marine symbiotic bacterium, is a potent inhibitor of asexual and sexual Plasmodium falciparum” (Antimicrobial Agents and Chemotherapy, 2024)
